Molecules are shown by their SMILES. Calls of active or inactive are those of the source. The rule behind the calls is not given here. Residues, ends and D or L forms follow the SMILES beside them. *: point of attachment. X1 = CCCCCCCCCCCCCCCC(=O)OCC(C*)OC(=O)CCCCCCCCCCCCCCC; Palmitoyl = CCCCCCCCCCCCCCCC(=O)*

Series [1] deals with Hepatitis C virus. In words: Antiviral activity against HCV infected human Huh7 replicon cells treated with 200 nM drug-induced human PBMC supernatants assessed as viral levels in presence of type I IFN receptor antibody by luciferase assay. Type of series: functional, organism-based. The following applies: Hepacivirus hominis.
For series [2], the system named is PBMC. In words: Toxic induction of TNFalpha level in human PBMC assessed as drug level causing maximal cytokine induction after 24 hrs relative to control. It is filed as toxicity, cell-based.
Series [3] has as its system Hepatitis C virus. In words: Antiviral activity against HCV infected human Huh7 replicon cells treated with drug-induced human PBMC supernatants assessed as viral levels by luciferase assay. It is filed as functional, organism-based. The following applies: Hepacivirus hominis.
For series [4], the system named is PBMC. Nature of the series: Toxic induction of IL6 level in human PBMC assessed as drug level causing maximal cytokine induction after 24 hrs relative to control. It is filed as toxicity, cell-based.
Series [5] concerns PBMC. In words: Induction of IFNalpha2a level in human PBMC assessed as drug level causing maximal cytokine induction after 24 hrs relative to control. It is filed as functional.
Series [6] has as its system Hepatitis C virus. Nature of the series: Antiviral activity against HCV infected human Huh7 replicon cells assessed as viral levels by luciferase assay. It is filed as functional, organism-based. The following applies: Hepacivirus hominis; Huh-7.
Series [7] concerns PBMC. Nature of the series: Increase in 2',5'-oligoadenylate synthase level in human PBMC after 24 hrs by PCR method relative to control. Type of series: functional, cell-based.
For series [8], the system named is PBMC. Nature of the series: Toxic induction of IL1-beta level in human PBMC assessed as drug level causing maximal cytokine induction after 24 hrs relative to control. It is filed as toxicity, cell-based.
Series [9] concerns PBMC. In words: (§1) Increase in IFNalpha level in human PBMC after 24 hrs relative to control. It is filed as functional, cell-based.
In series [10] the test system is Hepatitis C virus. Nature of the series: Antiviral activity against HCV infected human Huh7 replicon cells treated with 20 uM drug-induced human PBMC supernatants assessed as viral levels in presence of type I IFN receptor antibody by luciferase assay. It is filed as functional, organism-based. The following applies: Hepacivirus hominis.
Series [11] deals with Hepatitis C virus. In words: Antiviral activity against HCV infected human Huh7 replicon cells treated with 3 uM drug-induced human PBMC supernatants assessed as viral levels in presence of type I IFN receptor antibody by luciferase assay. It is filed as functional, organism-based. The following applies: Hepacivirus hominis.
Series [12] relates to Hepatitis C virus. In words: Antiviral activity against HCV infected human Huh7 replicon cells treated for 48 hrs with drug-induced mixed donor human PBMC supernatants assessed as viral levels by luciferase assay. Type of series: functional, organism-based, Hepacivirus hominis.
The test system of series [13] is PBMC. Nature of the series: Toxicity assessed as increase in IL6 level in human PBMC after 24 hrs relative to control. Type of series: functional, cell-based.
Series [14] deals with PBMC. Nature of the series: Toxicity assessed as increase in TNFalpha level in human PBMC after 6 hrs relative to control. Type of series: cell-based.
In series [15] the test system is PBMC. In words: Increase in 2',5'-oligoadenylate synthase level in human PBMC after 24 hrs relative to control. It is filed as functional, cell-based.
Series [16] concerns Hepatitis C virus. In words: Antiviral activity against HCV infected human Huh7 replicon cells treated for 48 hrs with drug-induced single donor human PBMC supernatants assessed as viral levels by luciferase assay. Type of series: functional, organism-based, Hepacivirus hominis.
Series [17] relates to PBMC. The series is described as §1. Type of series: functional, cell-based. This is another data set of the same source.
The subject of series [18] is Hepatitis C virus. In words: Antiviral activity against HCV infected human Huh7 replicon cells treated for 24 hrs with drug-induced human PBMC supernatants assessed as viral levels by luciferase assay. The following applies: Hepacivirus hominis. Type of series: functional, organism-based.
The test system of series [19] is Hepatitis C virus. In words: Antiviral activity against HCV infected human Huh7 replicon cells treated with 100 nM drug-induced human PBMC supernatants assessed as viral levels in presence of type I IFN receptor antibody by luciferase assay. Type of series: functional, organism-based. The following applies: Hepacivirus hominis.

In the case of `COCCOc1nc(N)c2[nH]c(=O)n(Cc3ccccc3)c2n1`, the outcome in the series on Hepatitis C virus [1] and in the series on Hepatitis C virus [6] was inactive. Besides, the Activity was 1 µM in the series on PBMC [2]; 1 µM in the series on PBMC [4]; 0.1 µM with PBMC [5]; “Dose-dependent effect” with PBMC [7]; 1 µM in the series with PBMC [8]; “Dose-dependent effect” in the series with PBMC [9]. Moreover, the outcome in the series on Hepatitis C virus [3] was Active.

`CC(C)Cn1cnc2c(N)nc3ccccc3c21` [IMIQUIMOD]: the Activity in the series on PBMC [2] is 1 µg/mL; in the series with PBMC [4] it was 1 µg/mL; in the series with PBMC [5], 1 µg/mL; in the series with PBMC [7] it was “Dose-dependent effect”; in the series with PBMC [8], 0.1 µg/mL; with PBMC [9] it was “Dose-dependent effect”. Also, in the series on Hepatitis C virus [3], the outcome was Active. Further, the outcome in the series with Hepatitis C virus [6] and with Hepatitis C virus [10] was inactive.

As to `CCCc1nc2c(N)nc3ccccc3c2s1`, the Activity was 10 µM with PBMC [2]; 3.3 µM in the series on PBMC [4]; 10 µM in the series on PBMC [5]; “Dose-dependent effect” with PBMC [7]; 3.3 µM in the series on PBMC [8]; “Dose-dependent effect” in the series on PBMC [9]. Besides, the outcome with Hepatitis C virus [11] and in the series with Hepatitis C virus [6] was inactive. Moreover, in the series with Hepatitis C virus [3], the outcome was Active.

`Cc1cn([C@H]2C[C@H](OP(=O)(O)OC[C@H]3O[C@@H](n4cnc5c(=O)[nH]c(N)nc54)[C@H](O)[C@@H]3OP(=O)(O)OC[C@H]3O[C@@H](n4cc(C)c(=O)[nH]c4=O)C[C@@H]3OP(=O)(O)OC[C@H]3O[C@@H](n4cc(C)c(=O)[nH]c4=O)C[C@@H]3OP(=O)(O)OC[C@H]3O[C@@H](n4cc(C)c(=O)[nH]c4=O)C[C@@H]3OP(=O)(O)OC[C@H]3O[C@@H](n4cc(C)c(=O)[nH]c4=O)C[C@@H]3OP(=O)(O)OC[C@H]3O[C@@H](n4cnc5c(=O)[nH]c(N)nc54)[C@H](O)[C@@H]3OP(=O)(S)OC[C@H]3O[C@@H](n4ccc(N)nc4=O)[C@H](O)[C@@H]3OP(=O)(O)OC[C@H]3O[C@@H](n4cc(C)c(=O)[nH]c4=O)C[C@@H]3OP(=O)(O)OC[C@H]3O[C@@H](n4cc(C)c(=O)[nH]c4=O)C[C@@H]3O)[C@@H](COP(=O)(O)OC[C@H]3O[C@@H](n4cnc5c(=O)[nH]c(N)nc54)[C@H](O)[C@@H]3OP(O)(=S)OC[C@H]3O[C@@H](n4ccc(N)nc4=O)[C@H](O)[C@@H]3OP(=O)(O)OC[C@H]3O[C@@H](n4cc(C)c(=O)[nH]c4=O)C[C@@H]3OP(=O)(O)OC[C@H]3O[C@@H](n4cnc5c(=O)[nH]c(N)nc54)[C@H](O)[C@@H]3OP(=O)(O)OC[C@H]3O[C@@H](n4cc(C)c(=O)[nH]c4=O)C[C@@H]3OP(=O)(O)OC[C@H]3O[C@@H](n4cc(C)c(=O)[nH]c4=O)C[C@@H]3OP(=O)(O)OC[C@H]3O[C@@H](n4cc(C)c(=O)[nH]c4=O)C[C@@H]3OP(=O)(O)OC[C@H]3O[C@@H](n4cc(C)c(=O)[nH]c4=O)C[C@@H]3OP(=O)(O)OC[C@H]3O[C@@H](n4cnc5c(=O)[nH]c(N)nc54)[C@H](O)[C@@H]3OP(O)(=S)OC[C@H]3O[C@@H](n4ccc(N)nc4=O)[C@H](O)[C@@H]3OP(=O)(O)OC[C@H]3O[C@@H](n4cc(C)c(=O)[nH]c4=O)C[C@@H]3OP(=O)(O)OC[C@H]3O[C@@H](n4cc(C)c(=O)[nH]c4=O)C[C@@H]3O)O2)c(=O)[nH]c1=O` (some centres not stated): the Activity was 5 µM in the series with PBMC [2]; 0.2 µM in the series on PBMC [4]; 0.2 µM with PBMC [5]; “Dose-dependent effect” with PBMC [7]; 5 µM with PBMC [8]; “Dose-dependent effect” with PBMC [9]. Further, the result with Hepatitis C virus [3] was Active. In addition, the outcome with Hepatitis C virus [6] was inactive.

Turning to `CCOCc1nc2c(N)nc3ccccc3c2n1CC(C)(C)O` [RESIQUIMOD], the figures for the EC50 with Hepatitis C virus [12] and with Hepatitis C virus [16] were 24 nM and 26.5 nM, respectively. The outcome in the series on PBMC [13], in the series on PBMC [15], in the series on Hepatitis C virus [3], in the series on PBMC [17] and in the series with Hepatitis C virus [18] was Active. Also, the “fold change (FC)” value with PBMC [14] worked out at 2.5. Also, the Activity in the series with PBMC [2] is 1 µM; in the series on PBMC [4], 1 µM; in the series with PBMC [5], 0.1 µM; with PBMC [7], “Dose-dependent effect”; in the series on PBMC [8], 1 µM; in the series on PBMC [9], “Dose-dependent effect”. The result with Hepatitis C virus [6] and in the series on Hepatitis C virus [19] was inactive.

Take `CCCCCCCCCCCCCCCC(=O)N[C@@H](CSCC(COC(=O)CCCCCCCCCCCCCCC)OC(=O)CCCCCCCCCCCCCCC)C(=O)N[C@@H](CO)C(=O)N[C@@H](CCCCN)C(=O)N[C@@H](CCCCN)C(=O)N[C@@H](CCCCN)C(=O)N[C@@H](CCCCN)C(=O)O` (some centres not stated) (Palmitoyl-C(X1)SKKKK-OH): the Activity in the series with PBMC [2] stood at 0.1 µM; in the series on PBMC [4], 1 µM; in the series on PBMC [5], 0.3 µM; with PBMC [8] it was 1 µM. The outcome in the series with Hepatitis C virus [3] was Active. The outcome with Hepatitis C virus [6] was inactive.

Values taken from ChEMBL document CHEMBL1155176, “Investigating Toll-like receptor agonists for potential to treat hepatitis C virus infection” (Antimicrob Agents Chemother, 2007).
